Laboratory results published in patent US20240108740A1, “THERAPEUTIC COMPOSITIONS INCLUDING SPN10 AND USES THEREOF” (Stealth BioTherapeutics Inc., priority 2022, published 2024).
Residues, ends and D or L forms follow the SMILES beside them.

Columns and labels:
[1] = Example 16: H2O2 scavenging, luminol-induced chemiluminescence; assay type: biochemical; details: H2O2 4.4 nmol
Experimental: The effect of peptide conjugates, aromatic-cationic peptides, or SPN10(s) (with or without aromatic-cationic peptides) on H2O2 will be measured by luminol-induced chemiluminescence. Luminol (25 μM) and horseradish peroxidase (0.7 IU) will be added to a solution of H2O2 (4.4 nmol) followed by peptide conjugates; aromatic-cationic peptides; or SPN10(s) alone or in combination with aromatic-cationic peptides. Chemiluminescence will be monitored with a Chronolog Model 560 aggregometer (Havertown, PA) for 20 minutes at 37° C.

Sprague-Dawley rats [2] = assay: Example 47: wound contraction after burn injury; assay type: in vivo, rat; details: compared to burn control subjects
Experimental: Sprague-Dawley rats (male, 300-350 g) will be pre-treated with (1 mg) peptide conjugates administered i.p. (approx. 3 mg/kg) 1 hour prior to burn (65° C. water, 25 seconds, lower back), followed by the topical application of peptide conjugates to the wound (1 mg), and 1 mg peptide conjugates administered i.p. once every 12 hours for 72 hours. Wounds will be observed for up to 3 weeks post-burn. A similar treatment regimen is followed for the groups treated with aromatic-cationic peptides (an equivalent molar dose of aromatic-cationic peptide based on the concentration of the aromatic-cationic peptide administered in the peptide conjugate treatment group), SPN10(s) (an equivalent molar dose of SPN10 based on the concentration of SPN10 administered in the peptide conjugate treatment group), or SPN10(s) in combination with aromatic-cationic peptides (e.g., an equivalent molar dose of SPN10 based on the concentration of SPN10 administered in the peptide conjugate treatment group and an equivalent molar dose of aromatic-cationic peptide based on the concentration of aromatic-cationic peptide administered in the peptide conjugate treatment group).

Sprague-Dawley rats [3] = assay: Example 41: contrast-induced nephropathy in glycerol-induced rhabdomyolysis; assay type: in vivo, rat; details: 25% glycerin + diatrizoate
Experimental: Animal model: This Example will utilize animals subjected to glycerol-induced rhabdomyolysis, as previously described. Parvez, et al., Invest. Radiol., 24:698-702 (1989); Duan, et al., Acta Radiologica, 41:503-507(2000). Sprague-Dawley rats with body weight of 300-400 g will be dehydrated for 24 hours followed by intramuscular (i.m.) injection of 25% glycerol solution (v/v) at the dose of 10 mL/kg. Twenty-four hours later, the animals will be administered a contrast dye with peptide conjugates, aromatic-cationic peptides, SPN10(s) with or without aromatic-cationic peptides, or control vehicle according to the following: 1) 25% glycerin+Saline+PBS (n=6), 2) 25% glycerin+diatrizoate+PBS (n=7), 3) 25% glycerin+diatrizoate+peptide conjugates (n=7), 4) 25% glycerin+diatrizoate+aromatic-cationic peptides (n=7), 5) 25% glycerin+diatrizoate+SPN10(s), and 6) 25% glycerin+diatrizoate+SPN10(s)+aromatic-cationic peptides. […] Samples will be analyzed by students t-test and differences will be considered significant at p<0.05.
Renal function: Renal function will be assessed by determining serum and urinary creatinine at baseline, 24 hours after dehydration, and 48 hours following contrast dye administration. Creatinine clearance will be calculated based on serum and urinary creatinine levels and urinary volume. Urinary albumin concentration will be determined using a competition ELISA assay.

Sprague-Dawley rats [4] = assay: Example 43: cisplatin-induced acute renal injury; assay type: in vivo, rat; details: cisplatin 7 mg/kg i.p.
Experimental: Experimental Protocol: Sprague-Dawley rats (350-400 g) will be given a single dose of cisplatin (7 mg/kg) intraperitoneally (i.p.) on Day 1. Subjects will receive peptide conjugates (3 mg/kg) (n=8), aromatic-cationic peptides (an equivalent molar dose of aromatic-cationic peptide based on the concentration of the aromatic-cationic peptide administered in the peptide conjugate treatment group) (n=8), SPN10(s) (an equivalent molar dose of SPN10 based on the concentration of SPN10 administered in the peptide conjugate treatment group) (n=8), SPN10(s) in combination with aromatic-cationic peptides (e.g., an equivalent molar dose of SPN10 based on the concentration of SPN10 administered in the peptide conjugate treatment group and an equivalent molar dose of aromatic-cationic peptide based on the concentration of aromatic-cationic peptide administered in the peptide conjugate treatment group) (n=8) or saline vehicle (n=8) subcutaneously just prior to cisplatin administration, and once daily for 3 additional days. Subjects will be placed in metabolic cages for the final 24 hours of the trial for urine collection. At the end of the trial, blood samples will be withdrawn from tail veins and the kidneys harvested.
Renal function: Renal function will be assessed by measuring blood urea nitrogen (BUN), serum creatinine, urine creatinine, and urine protein. GFR will be estimated from creatinine clearance, which will be determined from serum and urinary creatinine, and urinary volume.
Renal Histology: Kidneys will be fixed in 10% neutral-buffered formalin and embedded in paraffin wax for sectioning. Three-micron sections will be stained with periodic acid-Schiff (PAS) and analyzed by light microscopy.

N=C(N)NCCC[C@H](NC(=O)[C@@H](N)Cc1c[nH]c2ccccc12)C(=O)N[C@@H](Cc1c[nH]c2ccccc12)C(=O)N[C@@H](CCCCN)C(N)=O [SPN10, H-L-Trp-L-Arg-L-Trp-L-Lys-NH2] (H-WRWK-NH2)
luminol response (H2O2 scavenging) [1]: dose-dependently inhibit the luminol response
rate of wound contraction (Sprague-Dawley rats [2]): slower rate of wound contraction
albuminuria after contrast dye (Sprague-Dawley rats [3]): attenuate or prevent albuminuria
creatinine clearance after contrast dye (Sprague-Dawley rats [3]): attenuate or prevent reduced creatinine clearance
loss of proximal tubule brush border, glomerular swelling and tubular protein cast deposition (PAS) (Sprague-Dawley rats [3]): attenuate or prevent these effects
increase in BUN after cisplatin (Sprague-Dawley rats [4]): attenuate or prevent this effect
increase in serum creatinine after cisplatin (Sprague-Dawley rats [4]): attenuate or prevent this effect
reduction in body weight after cisplatin (Sprague-Dawley rats [4]): attenuate or prevent this effect
